Test results reported in patent US20250332173A1, “COMPOUNDS AND METHODS FOR MODULATING NUCLEIC ACID SPLICING” (REMIX THERAPEUTICS INC., priority 2021, published 2025).
Counter-ions that a name gives are not always drawn. Like-named read-outs stand apart in the source and are kept apart here.

How the values were obtained:
MYB mRNA = assay: RT-qPCR splicing assay, MYB canonical junction (CJ) and alternative junction (AJ) mRNA; assay type: cell-based, human; settings: Homo sapiens; for AC50: increase in MYB alternative junction (AJ) mRNA, read-out: MYB AJ AC50
Method in brief: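 24 h treatment, 37 °C/5% CO2; A673 or K562; 11-pt 3-fold series, top 10 uM final; DMSO ≤0.25%. Cell lysis with DNase I, then 1-step RT-qPCR. Housekeeping normalization: PPIA (A673), GAPDH or GUSB (K562).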

Target C = assay: HiBiT protein abundance assay, Target C HiBiT K562 cell line; assay type: cell-based; settings: Homo sapiens; HiBiT lytic detection, modified K562 cells, 24 hours, top dose 10 μM; read-out: Effect on protein abundance, Target C (IC50)
Method: • Promega Nano-Glo HiBiT Lytic Detection System (cat #N3030) • Corning 384-well TC-treated microplates (cat #3570) • Synthego Engineered Cells Knock-In Clones
Cells were maintained in IMDM with 10% FBS. Before the assay, cells were diluted with […] growth media (IMDM+[…] media) and were seeded in a 384-well plate at a density of 10,000 cells/well (for each cell line listed in Table 5). Each compound was prepared as a 10-point 3-fold serial dilution in DMSO with the top dose at a final concentration of 10 μM in the well. Unmodified K562 cells were added at the previously specified density with DMSO to serve as an assay baseline and positive control (PC) and DMSO only with the respective modified cell lines was added to the negative control (NC) columns. Final DMSO concentration was kept at or below 0.25%. Treated cell plates were placed in an incubator at 37° C. with […] for 24 hours. After 24 hours, 25 μL of Complete HiBit Lytic reagent was added to each well at room temperature (e.g. one plate requiring 10 mL Lytic Buffer, 100 μL LgBiT Protein, 200 μL Lytic Substrate), shaken for 5 minutes at 600 RPM, then left to sit for 10 minutes for signal to stabilize before reading on a Spark Cyto plate reader (Tecan) with a 500 ms measurement time.
To determine compound effects on protein abundance of each target in Table 5, the percent response for each respective cell line was calculated at each compound concentration as follows:
For the normalized response at each concentration, a four-parameter logistical regression was fit to the data and the response was interpolated at the […] to determine a concentration for protein abundance at […] the untreated control.

MYB = assay: HiBiT protein abundance assay, MYB HiBiT K562 cell line; assay type: cell-based, human; settings: 24 hours, top dose 10 μM
Method in brief: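 K562 knock-in lines with endogenous HiBiT-tagged target, 10,000 cells/well in IMDM + FBS, treated 24 h at 37° C with 10-point 3-fold dilutions (top 10 μM final; DMSO ≤0.25%). Lytic Nano-Glo HiBiT luminescence normalized to untagged K562 baseline and DMSO controls; IC50 = concentration giving 50% abundance via four-parameter fit.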

[1] = Table 5 panel, canonical junction qPCR, compound concentration having 50% response in CJ decrease, read-out: MYB IC50 (decrease in CJ mRNA levels)
[2] = decrease in MYB canonical junction (CJ) mRNA, RT-qPCR, read-out: MYB CJ IC50
[3] = HiBiT lytic detection, modified K562 cells, read-out: Effect on protein abundance, MYB (IC50)
[4] = HiBiT K562 cell line, read-out: Effect on protein abundance, MYB (IC50 category)

| IC50 (MYB mRNA; [1]) [nM] | IC50 (MYB mRNA; [2]) [nM] | IC50 (Target C) [nM] | IC50 (MYB; [3]) [nM] | IC50 (MYB; [4]) [nM] | Compound | AC50 (MYB mRNA; RT-qPCR) [nM] |
| --- | --- | --- | --- | --- | --- | --- |
| < 100 | < 100 | < 100 | < 100 |  | Cc1cn2nc(-c3ccn4c(=O)c(C5CCNCC5)ccc4c3)cc(C)c2n1 [Compound 1181] | < 100 |
| 100 to 1000 | 100 to 1000 | 1000 to 10000 | 100 to 1000 |  | CNC1CCN(c2ccc3cc(-c4cc(C)c5nc(C)cn5n4)ccn3c2=O)C1 (stereo not drawn) [Compound 1158] | 100 to 1000 |
| 1000 to 10000 | 1000 to 10000 |  |  | 1000 to 10000 | Cc1cn2nc(-c3ccc4c(=O)n(C5CCNCC5)ccc4c3)cc(C(N)=O)c2n1 [Compound 523, 2-methyl-6-[1-oxo-2-(4-piperidyl)-6-isoquinolyl]imidazo[1,2-b]pyridazine-8-carboxamide] | 1000 to 10000 |
| 1000 to 10000 | 1000 to 10000 |  |  | 1000 to 10000 | Cn1ccc2c(cnn2-c2ccc3c(=O)n(C4CCNCC4)ccc3c2)c1=O [Compound 521] | 1000 to 10000 |
| < 100 | < 100 |  |  | < 100 | Cc1cn2nc(-c3cc(F)c4c(=O)n(C5CCNCC5)ncc4c3)cc(Oc3ccccc3)c2n1 [Compound 548, 8-fluoro-6-(2-methyl-8-phenoxy-imidazo[1,2-b]pyridazin-6-yl)-2-(4-piperidyl)phthala-zin-1-one] | < 100 |
| 100 to 1000 | < 100 |  |  | < 100 | Cc1cn2nc(-c3ccc4c(=O)n(C5CCNCC5)ccc4c3)cc(Oc3ccccc3F)c2n1 [Compound 544, 6-[8-(2-fluorophenoxy)-2-methyl-imidazo[1,2-b]pyridazin-6-yl]-2-(4-piperidyl) isoquinolin-1-one; hydrochloride] | 100 to 1000 |
| 100 to 1000 | 100 to 1000 |  |  | 100 to 1000 | Cc1cn2nc(-c3cc(O)c4c(=O)n(C5CCN(CCF)CC5)ncc4c3)cc(C)c2n1 [Compound 553] | 100 to 1000 |
| 100 to 1000 | 100 to 1000 |  |  | 100 to 1000 | Cc1cn2cc(-c3cc(F)c4c(=O)n([C@@H]5C[C@@H](C)N[C@@H](C)C5)ccc4c3)cc(F)c2n1 [Compound 642, 2-[(2S,6R)-2,6-dimethyl-4-piperidyl]-8-fluoro-6-(8-fluoro-2-methyl-imidazo[1,2-a]pyridin-6-yl)isoquinolin-1-one] | 100 to 1000 |
| < 100 | < 100 |  |  | < 100 | Cc1cn2nc(-c3ccc4c(=O)n(C5CCNCC5)ccc4c3)cc(Oc3ccccc3)c2n1 [Compound 519, 6-(2-methyl-8-phenoxy-imidazo[1,2-b]pyridazin-6-yl)-2-(4-piperidyl)isoquinolin-1-one] | < 100 |
| < 100 | < 100 |  |  | < 100 | CCN1CCC(n2ncc3cc(-c4cc(C)c5nc(C)cn5n4)cc(O)c3c2=O)CC1 [Compound 542] | < 100 |
| 100 to 1000 | 100 to 1000 |  |  | < 100 | Cc1cn2nc(-c3ccc4c(=O)n(C5CCNCC5)ccc4c3)cc(OCc3ccccc3)c2n1 [Compound 526, 6-(8-benzyloxy-2-methyl-imidazo[1,2-b]pyridazin-6-yl)-2-(4-piperidyl) isoquinolin-1-one] | 100 to 1000 |
| > 10000 | > 10000 |  |  | > 10000 | Cc1cn2nc(-c3ccc4c(=O)n(C5CCNCC5)ccc4c3)cc(C(=O)N(C)C)c2n1 [Compound 524, N, N, 2-trimethyl-6-[1-oxo-2-(4-piperidyl)-6-isoquinolyl]imidazo[1,2-b]pyridazine-8-carboxamide] | > 10000 |
| < 100 | < 100 |  |  | < 100 | COc1cc(-c2ccc3c(=O)n(C4CCNCC4)ccc3c2)nn2cc(C)nc12 [Compound 514, 6-(8-methoxy-2-methyl-imidazo[1,2-b]pyridazin-6-yl)-2-(4-piperidyl) isoquinolin-1-one; hydrochloride] | < 100 |
| 100 to 1000 | 100 to 1000 |  |  | 100 to 1000 | Cc1cn2nc(-c3cc(O)c4c(=O)n(C5CCN(C)CC5)ncc4c3)cc(C)c2n1 [Compound 543] | 100 to 1000 |
| 1000 to 10000 | 100 to 1000 |  |  | 100 to 1000 | Cc1cc(-c2cc(O)c3c(=O)n(C4CCNC5(CC5)C4)ncc3c2)cc2cn(C)nc12 (stereo not drawn) [Compound 561] | 1000 to 10000 |
| 1000 to 10000 | 1000 to 10000 |  |  | 1000 to 10000 | CNc1cc(-c2cc(C)c3nc(C)cn3n2)cc2ccn([C@H]3CCNC3)c(=O)c12 [Compound 647, 6-(2,8-dimethylimidazo[1,2-b]pyridazin-6-yl)-8-(methylamino)-2-[(3S)-pyrrolidin-3-yl]isoquinolin-1-one] | 1000 to 10000 |
| 1000 to 10000 | 1000 to 10000 |  |  | 1000 to 10000 | Cc1cc(-c2ccc3c(=O)n(C4CCNC5(CC5)C4)ncc3c2)cc2cn(C)nc12 (stereo not drawn) [Compound 512] | 1000 to 10000 |
| < 100 | < 100 |  |  | < 100 | C=Cc1cn(C2CCNCC2)c(=O)c2c(F)cc(-c3cc(F)c4nc(C)cn4c3)cc12 [Compound 559, 4-ethenyl-8-fluoro-6-{8-fluoro-2-methylimidazo[1,2-a]pyridin-6-yl}-2-(piperidin-4-yl)isoquinolin-1-one] | < 100 |
| 100 to 1000 | 1000 to 10000 |  |  | 100 to 1000 | Cc1cn2nc(-c3ccc4c(=O)n(C5CCN(C)CC5)cnc4c3)cc(C)c2n1 [Compound 176] | 100 to 1000 |
| < 100 | < 100 |  |  | < 100 | COc1cccc(Oc2cc(-c3ccc4c(=O)n(C5CCNCC5)ccc4c3)nn3cc(C)nc23)c1 [Compound 547, 6-[8-(3-methoxyphenoxy)-2-methyl-imidazo[1,2-b]pyridazin-6-yl]-2-(4 piperidyl) isoquinolin-1-one] | < 100 |
| 100 to 1000 | 100 to 1000 |  |  | 100 to 1000 | Cc1cc(-c2cc(F)c3c(=O)n(C4CCNC5(CC5)C4)ncc3c2)cc2cn(C)nc12 (stereo not drawn) [Compound 554] | 100 to 1000 |
| 100 to 1000 | 100 to 1000 |  |  | < 100 | Cc1cn2nc(-c3ccc4c(=O)n(C5CCNCC5)ccc4c3)cc(CC(=O)O)c2n1 [Compound 531, 2-[2-methyl-6-[1-oxo-2-(4-piperidyl)-6-isoquinolyl]imidazo[1,2-b]pyridazin-8-yl]acetic acid] | 100 to 1000 |

| Compound | IC50 (MYB mRNA; [1]) [nM] | IC50 (MYB mRNA; [2]) [nM] | IC50 (Target C) [nM] | IC50 (MYB; [3]) [nM] | IC50 (MYB; [4]) [nM] | AC50 (MYB mRNA; RT-qPCR) [nM] |
| --- | --- | --- | --- | --- | --- | --- |
| Cc1cn2nc(-c3ccn4c(=O)c(C5=CCNCC5)ncc4c3)cc(C)c2n1 [Compound 1182] | 100 to 1000 | 100 to 1000 | 100 to 1000 | 100 to 1000 |  | 100 to 1000 |
| CN(c1ccc2c(=O)n(-c3ccc4nn(C)cc4c3)cnc2c1)C1CCNCC1 [Compound 180] | > 10000 | > 10000 |  |  | > 10000 | > 10000 |
